Active and inactive are the calls of the source.
Experiments:
[1] = C. albicans growth with fluconazole, confirmation, fluorescence, retest (AID 2467); assay type: functional, cell-based
[2] = NIH-3T3 fibroblast cytotoxicity, dose response, cytotoxicity control, cell-based, fluorescence, Alamar Blue, secondary assay (AID 2327); assay type: functional;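 also: NIH-3T3 mouse fibroblasts cultured with fluconazole at 8 µg/mL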
[3] = biological target: T1, RNA-binding protein pos-1 (Caenorhabditis elegans, UniProt G5EF15); test: inhibitors of POS-1/mex-3 RNA binding, dose response, biochemical, fluorescence polarization (AID 1964);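 also: purified POS-1 fused to maltose binding protein made in E. coli; potency of compounds blocking POS-1 binding to fluorescent RNA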
T1 sequence (G5EF15 whole entry): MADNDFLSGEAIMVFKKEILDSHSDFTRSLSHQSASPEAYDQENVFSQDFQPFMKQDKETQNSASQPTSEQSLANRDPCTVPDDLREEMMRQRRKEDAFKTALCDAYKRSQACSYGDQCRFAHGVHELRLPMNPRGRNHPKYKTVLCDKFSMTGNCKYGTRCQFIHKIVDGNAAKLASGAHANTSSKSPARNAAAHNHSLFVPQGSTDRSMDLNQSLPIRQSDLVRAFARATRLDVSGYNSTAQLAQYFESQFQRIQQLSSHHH

[4] = biological target: T2, Replicative DNA helicase DnaB (Mycobacterium tuberculosis, UniProt P9WMR3); test: DnaB intein splicing inhibitors, dose response, biochemical, cell-free fluorescence (AID 449749); assay type: functional
T2 sequence (P9WMR3 whole entry): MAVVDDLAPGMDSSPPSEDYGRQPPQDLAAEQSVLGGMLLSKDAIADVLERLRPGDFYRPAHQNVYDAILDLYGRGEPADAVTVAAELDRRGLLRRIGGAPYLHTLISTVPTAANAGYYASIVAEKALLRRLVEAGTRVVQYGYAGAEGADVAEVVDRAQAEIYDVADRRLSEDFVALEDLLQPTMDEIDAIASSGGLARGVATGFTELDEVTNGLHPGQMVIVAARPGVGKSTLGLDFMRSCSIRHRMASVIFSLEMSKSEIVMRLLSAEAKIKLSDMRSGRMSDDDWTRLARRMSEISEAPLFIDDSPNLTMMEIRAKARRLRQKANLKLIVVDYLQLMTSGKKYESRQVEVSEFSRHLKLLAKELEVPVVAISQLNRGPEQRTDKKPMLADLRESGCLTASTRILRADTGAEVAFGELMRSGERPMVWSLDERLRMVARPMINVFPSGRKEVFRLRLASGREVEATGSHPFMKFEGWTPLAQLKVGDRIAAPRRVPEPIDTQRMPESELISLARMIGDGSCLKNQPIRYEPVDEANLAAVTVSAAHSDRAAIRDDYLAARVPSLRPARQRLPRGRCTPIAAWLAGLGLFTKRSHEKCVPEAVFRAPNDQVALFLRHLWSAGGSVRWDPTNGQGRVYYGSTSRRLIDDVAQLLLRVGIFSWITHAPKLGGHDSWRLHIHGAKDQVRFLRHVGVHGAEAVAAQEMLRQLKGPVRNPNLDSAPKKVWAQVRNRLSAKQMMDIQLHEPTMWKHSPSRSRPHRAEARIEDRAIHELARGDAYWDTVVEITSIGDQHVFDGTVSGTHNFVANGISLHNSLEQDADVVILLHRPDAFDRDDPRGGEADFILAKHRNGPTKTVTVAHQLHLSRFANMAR

[5] = biological target: T3, Zinc finger protein mex-5 (Caenorhabditis elegans, UniProt Q9XUB2); test: MEX-5/TCR-2 RNA interaction inhibitors, dose response, biochemical, C. elegans, fluorescence polarization (AID 1960)
T3 sequence (Q9XUB2 whole entry): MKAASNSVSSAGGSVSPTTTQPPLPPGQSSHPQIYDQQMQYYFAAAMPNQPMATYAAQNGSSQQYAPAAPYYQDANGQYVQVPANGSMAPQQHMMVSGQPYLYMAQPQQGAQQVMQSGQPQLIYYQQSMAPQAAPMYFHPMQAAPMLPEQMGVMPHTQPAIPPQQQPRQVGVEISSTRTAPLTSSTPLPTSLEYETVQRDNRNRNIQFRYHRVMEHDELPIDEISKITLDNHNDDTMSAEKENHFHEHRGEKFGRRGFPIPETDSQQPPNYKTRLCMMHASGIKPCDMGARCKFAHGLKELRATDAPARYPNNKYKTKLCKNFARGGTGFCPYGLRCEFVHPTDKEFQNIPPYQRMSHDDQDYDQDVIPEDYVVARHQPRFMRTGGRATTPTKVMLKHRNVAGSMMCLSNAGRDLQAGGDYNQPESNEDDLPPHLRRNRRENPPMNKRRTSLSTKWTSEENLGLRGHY

[6] = human group III sPLA2 inhibitors, dose response, biochemical, QFRET, IC50 (AID 743457);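 also: green fluorescence rise as the enzyme cleaves BODIPY PC-A2 in liposomes; potency for inhibition of the enzyme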
Protein RecA = biological target: T4, Protein RecA (Mycobacterium tuberculosis, UniProt P9WHJ3); test: Fluorescence Cell-Free Homogeneous Dose Retest to Identify Inhibitors of RecA-Intein Splicing Activity. [Related pubchem assays (depositor defined):AID2097, AID2223, AID489010, AID492950]; assay type: functional
T4 sequence (P9WHJ3 whole entry): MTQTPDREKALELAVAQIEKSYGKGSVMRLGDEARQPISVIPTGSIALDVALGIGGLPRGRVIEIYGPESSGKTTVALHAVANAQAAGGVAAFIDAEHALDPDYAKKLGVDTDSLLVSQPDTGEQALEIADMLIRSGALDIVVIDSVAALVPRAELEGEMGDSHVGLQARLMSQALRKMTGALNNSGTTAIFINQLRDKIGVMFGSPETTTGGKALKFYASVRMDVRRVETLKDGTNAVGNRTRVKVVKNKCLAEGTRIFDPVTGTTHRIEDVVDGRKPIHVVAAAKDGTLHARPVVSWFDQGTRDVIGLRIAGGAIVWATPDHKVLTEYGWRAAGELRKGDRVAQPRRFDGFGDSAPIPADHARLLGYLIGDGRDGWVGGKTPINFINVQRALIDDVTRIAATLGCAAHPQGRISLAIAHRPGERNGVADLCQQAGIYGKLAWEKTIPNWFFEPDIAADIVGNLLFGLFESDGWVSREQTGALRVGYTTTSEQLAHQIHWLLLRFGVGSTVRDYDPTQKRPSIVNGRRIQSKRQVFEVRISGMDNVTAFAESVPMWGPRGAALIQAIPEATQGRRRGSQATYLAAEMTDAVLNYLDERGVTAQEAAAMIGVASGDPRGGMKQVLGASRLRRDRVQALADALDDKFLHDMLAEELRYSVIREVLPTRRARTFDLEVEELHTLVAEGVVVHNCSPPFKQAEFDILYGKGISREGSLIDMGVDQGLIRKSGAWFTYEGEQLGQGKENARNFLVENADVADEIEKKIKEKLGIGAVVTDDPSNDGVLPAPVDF

Albumin = Albumin (Bos taurus, UniProt P02769); test: Counterscreen for inhibitors of T-cell receptor (TCR)-CD3 interaction: Fluorescence-based biochemical high throughput dose response assay to identify inhibitors of T-cell receptor (TCR)-CD3 interaction using a TAMRA-labeled BSA probe.; assay type: functional
[7] = biological target: Luciferin 4-monooxygenase (Photinus pyralis, UniProt P08659); test: firefly luciferase enzyme inhibitors, dose response, biochemical, luminescence (AID 1891)
Protein skinhead-1 = biological target: T5, Protein skinhead-1 (Caenorhabditis elegans, UniProt P34707); assay type: functional
T5 sequence (P34707 whole entry): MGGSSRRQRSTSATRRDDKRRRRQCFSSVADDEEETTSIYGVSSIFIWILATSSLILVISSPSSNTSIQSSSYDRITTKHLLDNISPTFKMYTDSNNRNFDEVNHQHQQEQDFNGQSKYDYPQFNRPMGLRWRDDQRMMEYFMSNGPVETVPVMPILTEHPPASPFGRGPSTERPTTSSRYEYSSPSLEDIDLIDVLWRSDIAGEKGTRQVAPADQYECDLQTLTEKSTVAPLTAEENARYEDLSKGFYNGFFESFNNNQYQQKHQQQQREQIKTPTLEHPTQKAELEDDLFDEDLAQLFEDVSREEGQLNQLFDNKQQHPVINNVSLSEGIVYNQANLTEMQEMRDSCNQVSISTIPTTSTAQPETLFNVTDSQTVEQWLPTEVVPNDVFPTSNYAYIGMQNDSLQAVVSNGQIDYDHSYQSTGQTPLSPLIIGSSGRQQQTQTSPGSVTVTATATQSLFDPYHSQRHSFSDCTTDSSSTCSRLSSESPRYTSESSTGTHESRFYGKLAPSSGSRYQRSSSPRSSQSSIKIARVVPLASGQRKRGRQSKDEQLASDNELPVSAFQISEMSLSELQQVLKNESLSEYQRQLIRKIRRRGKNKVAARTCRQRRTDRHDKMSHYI

[8] = A549 cell cytotoxicity, dose response, cytotoxicity control, plate reader, cherry-pick, antagonist series (AID 743412); assay type: functional, cell-based
[9] = LGR2 antagonists, dose response, cell-based, HEK293, CRE-luciferase reporter, cherry pick, set 2 (AID 743343); assay type: functional;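 also: transfected cells were stimulated with diluted bursicon conditioned medium after compound addition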
[10] = MC4R antagonists, dose response, counter-screen for LGR2 antagonist project, cell-based, plate reader, cherry pick (AID 743444); assay type: functional;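 also: transfected HEK 293 cells stimulated with alpha-MSH peptide; potency of inhibitors of the alpha-MSH evoked signal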
[11] = HepG2 cell cytotoxicity, dose response, cytotoxicity control, plate reader, cherry-pick, antagonist series (AID 743416); assay type: functional, cell-based
[12] = Luminescence Cell-Based Dose Confirmation HTS to Identify Inhibitors of Platelet Dense Granule Release. [Related pubchem assays: 1663 (Primary HTS), 1678 (Summary of Project)]; assay type: functional
[13] = HEK293 cell cytotoxicity, dose response, cytotoxicity control, plate reader, cherry-picked samples (AID 743446); assay type: functional, cell-based
BJ [14] = test: cells; assay type: functional, cell-based; settings: Homo sapiens
BJ [15] = test: cytotoxicity toward BJ-TERT fibroblasts, dose response, cell-based, RAS-independent, luminescence (AID 1933); assay type: functional; settings: Homo sapiens
BJ [16] = test: cytotoxicity toward BJ-TERT-LT-ST fibroblasts, dose response, cell-based, RAS-independent, luminescence (AID 1935); assay type: functional; settings: Homo sapiens;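 also: BJ fibroblasts immortalized with TERT plus LT and ST oncogenes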
[17] = cytotoxicity toward DRD oncogenic fibroblasts, dose response, cell-based, non-viral oncogenic, luminescence (AID 1934); assay type: functional; settings: Homo sapiens

Luciferin 4-monooxygenase, sequence (P08659 whole entry): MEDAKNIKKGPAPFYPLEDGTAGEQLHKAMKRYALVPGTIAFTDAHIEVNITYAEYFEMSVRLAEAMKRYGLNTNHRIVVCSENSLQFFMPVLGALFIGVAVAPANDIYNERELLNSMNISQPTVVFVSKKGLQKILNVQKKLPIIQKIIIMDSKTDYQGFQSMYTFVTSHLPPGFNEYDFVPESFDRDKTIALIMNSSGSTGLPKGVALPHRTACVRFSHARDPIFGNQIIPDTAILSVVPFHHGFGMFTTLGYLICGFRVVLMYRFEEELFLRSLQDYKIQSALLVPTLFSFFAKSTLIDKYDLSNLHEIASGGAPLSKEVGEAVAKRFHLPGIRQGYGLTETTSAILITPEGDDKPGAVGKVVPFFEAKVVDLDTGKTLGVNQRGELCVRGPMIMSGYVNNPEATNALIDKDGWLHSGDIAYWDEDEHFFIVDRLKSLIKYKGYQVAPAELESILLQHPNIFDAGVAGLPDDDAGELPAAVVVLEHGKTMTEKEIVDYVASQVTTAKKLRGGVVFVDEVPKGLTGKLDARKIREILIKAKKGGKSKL
Albumin, sequence (P02769 whole entry): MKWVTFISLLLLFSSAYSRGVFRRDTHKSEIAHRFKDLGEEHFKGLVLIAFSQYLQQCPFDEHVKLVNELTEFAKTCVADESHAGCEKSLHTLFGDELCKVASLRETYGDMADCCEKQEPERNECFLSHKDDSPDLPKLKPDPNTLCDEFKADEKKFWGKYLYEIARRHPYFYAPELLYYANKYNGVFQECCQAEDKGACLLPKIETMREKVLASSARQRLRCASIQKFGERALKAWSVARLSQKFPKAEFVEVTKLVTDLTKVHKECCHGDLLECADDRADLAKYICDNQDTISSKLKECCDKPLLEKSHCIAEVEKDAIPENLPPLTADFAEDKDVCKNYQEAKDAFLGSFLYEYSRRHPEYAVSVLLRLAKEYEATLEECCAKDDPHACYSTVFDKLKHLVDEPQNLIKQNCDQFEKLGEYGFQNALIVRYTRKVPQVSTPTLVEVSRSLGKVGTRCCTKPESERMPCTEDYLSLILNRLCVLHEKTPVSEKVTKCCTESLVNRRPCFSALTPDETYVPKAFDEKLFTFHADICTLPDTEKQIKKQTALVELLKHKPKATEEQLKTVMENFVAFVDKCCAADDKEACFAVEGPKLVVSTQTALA

O=C(NNC(=O)c1ccc2ccccc2c1O)c1ccccc1Cl
active: AC50 [4] 30 µM
inactive: EC50 [2] > 160 µM | IC50 [6] > 122 µM | EC50 (Protein RecA) > 380 µM | IC50 (Albumin) > 94.1 µM
> 38 µM (not active): EC50 [1]
inconclusive: EC50 [3] 15.4 µM | EC50 [5] 2.31 µM

CCOc1ccc2nc(NC(=O)c3ccco3)sc2c1
active: EC50 [7] 383 nM | AC50 [8] 35.4 µM | AC50 [9] 8.15 µM | AC50 [10] 7.74 µM | AC50 [11] 32.6 µM | EC50 [12] 3.13 µM | AC50 [13] 20.6 µM
inactive: IC50 (Protein skinhead-1) > 100 µM

O=C(Nc1ccc(-c2nc3ccccc3[nH]2)cc1)C1CCCO1 (configuration not stated)
active: EC50 [7] 1020 nM | AC50 [8] 14.1 µM | AC50 [9] 6.14 µM | AC50 [10] 6.98 µM | AC50 [11] 24.7 µM | EC50 (BJ [16]) 22.9 µM | EC50 [12] 1.69 µM | AC50 [13] 21 µM
inconclusive: EC50 (BJ [14]) 16.8 µM | EC50 (BJ [15]) 8.39 µM | EC50 [17] 9.19 µM

Source: ChEMBL document CHEMBL1201862, “PubChem BioAssay data set” (2004)
